Where two headings read alike, the source gives them in different places.
What was measured:
[1] = Solubility of compounds and common preservatives in Bio-PDO and PG; format: physicochemical
Excerpt: Cosmetic preservative blends need a broad range of protection against gram positive and negative bacteria, yeasts and molds. In cosmetics, solubility is also important. Clear solutions are preferred to emulsions, suspensions or dispersions. […] Other preservatives or a mixture of preservatives can be used with Bio-PDO™, such as choloracetamide sodium benzoate, 5-bromo-5-nitro-1,3-dioxane, butyl paraben, ethyl paraben, isobutyl paraben, iodopropynyl butylcarbamate, and 2,4,4′-trichloro-2′-[…].

humans [2] = experiment: Second human study of irritation or delayed contact hypersensitivity, Bio-PDO vs PG (Example 3); format: in vivo
Excerpt: A second study to determine the potential of biologically-derived 1,3-propanediol and PG, diluted to concentrations of 25%, 50%, and 75% (pH 4, 7 and 9 tested) to cause irritation or delayed contact hypersensitivity in humans.

skin = settings: background statement, Kinnunen et al. 1991; cited from earlier work
humans [3] = experiment: Human repeated patch test for irritation or delayed contact hypersensitivity (Example 2); format: in vivo; settings: diluted with D.I. water to 5%, 25% and 50%, nine 24-hour induction patches and challenge
Excerpt: The purpose of this study was to determine the potential of biologically-derived 1,3-propanediol, diluted to concentrations of 5%, 25%, and 50%, to cause irritation or delayed contact hypersensitivity in humans. The method employed in carrying out this test, described below, was similar to that described in “Appraisal of the Safety of Chemicals in Foods, Drugs and Cosmetics” by […] and published by the Association of Food and Drug Officials of the United States, the entirety of which is incorporated herein by reference.
Test Panel: The test involved the application of the test article to the upper arms of a group of 112 volunteer panelists. The panelists ranged from 16 to 71 years of age. One hundred and five panelists completed the study. Prior to the initiation of the study, all panelists were in good general health and free of any visible skin disease or anomaly in the area to be patched. Each panelist was required to read, understand and sign an informed consent statement. […]

## CCO [Ethanol]
[1]
  Solubility in Bio-PDO ™: Soluble
  Solubility in PG: Soluble

## CC(C)O [IPA]
[1]; 50 Wt % in Bio-PDO (Table 1)
  Solubility in Bio-PDO ™: Soluble
[1]; 50 Wt % in PG (Table 1)
  Solubility in PG: Soluble

## Oc1cc(Cl)ccc1Oc1ccc(Cl)cc1Cl [Irgasan]
[1]; 20 Wt % in Bio-PDO (Table 2)
  Solubility in Bio-PDO ™: Soluble
[1]; 20 Wt % in PG (Table 2)
  Solubility in PG: Soluble

## O=C(O)c1ccccc1O [Salicyclic acid]
[1]; 10 Wt % in Bio-PDO (Table 2)
  Solubility in Bio-PDO ™: Soluble
[1]; 10 Wt % in PG (Table 2)
  Solubility in PG: Soluble
[1]; 15 Wt % in Bio-PDO (Table 2)
  Solubility in Bio-PDO ™: Soluble
[1]; 15 Wt % in PG (Table 2)
  Solubility in PG: Soluble
[1]; 20 Wt % in Bio-PDO (Table 2)
  Solubility in Bio-PDO ™: Not Soluble
[1]; 20 Wt % in PG (Table 2)
  Solubility in PG: Soluble

## OCC(O)CO [Glycerol]
[1]
  Solubility in Bio-PDO ™: Soluble
  Solubility in PG: Soluble

## CC(O)CO (centres unmarked) [PG, propylene glycol, reference compound]
Humans [2]; in vivo, pH 7
  Dermal irritation: produced dermal irritation at all three concentrations
skin
  Skin irritation and sensitization: is a skin irritant and skin sensitizer

## OCCCO [Bio-PDO™, 1,3-propanediol]
Humans [2]; humans, 25, 50 and 75% at pH 7, or 75% at pH 4 and 9
  Dermal irritation or sensitization reactions: did not produce any clinically significant dermal irritation or sensitization reactions
Humans [3]
  Skin irritation, fatiguing or sensitization: not to be a skin irritant, fatiguing agent, or sensitizing agent

## OCCCCO [1,4-Butanediol]
[1]; 50 Wt % in Bio-PDO (Table 1)
  Solubility in Bio-PDO ™: Soluble
[1]; 50 Wt % in PG (Table 1)
  Solubility in PG: Soluble
